{"source": "ChEMBL document CHEMBL5604062", "about": "“ASAP - ZIKV NS2B-NS3 protease fluorescence dose response” (2024)", "data": [{"molecular_target": "Nonstructural protein 3 (Zika virus, UniProt A0A024AXB9)", "sequence (A0A024AXB9 whole entry)": "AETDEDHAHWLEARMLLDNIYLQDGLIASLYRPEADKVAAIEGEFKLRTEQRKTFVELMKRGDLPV", "test": "Functional biochemical assay to identify treatments for viral infectious disease that targets Zika NS2B-NS3 protease. Utilizing a direct enzyme activity measurement method, reading the fluorescence intensity is used to characterize the relative potency of inhibitors as IC50.", "set-up": "species or system PRVABC59", "units": {"IC50": "µM"}, "values": [{"smiles": "O=C(O)c1cc(Cl)ccc1NS(=O)(=O)c1ccc(N[C@H]2CCOC2)nc1", "IC50": "> 99.5"}, {"smiles": "COc1cc(Cl)cc(C(=O)O)c1NS(=O)(=O)c1ccc(Oc2ccccc2Cl)cc1", "IC50": 43.6}, {"smiles": "CS(=O)(=O)NC(=O)c1cc(Cl)ccc1NS(=O)(=O)c1ccc(Oc2ccccc2Cl)cc1", "IC50": 36.2}, {"smiles": "CCn1c(=O)c(N2CC[C@@H](Cc3ccncc3)C2)nc2ccccc21", "IC50": "> 99.5"}, {"smiles": "CCc1ccccc1-c1ccc([C@@H](NC(=O)OCc2ccccc2)C(=O)Nc2cccc(CN)c2)cc1", "IC50": 5.83}, {"smiles": "CCn1cc(C2=CCCNC2)nc(N2CC[C@@H](CO)C2)c1=O", "IC50": "> 99.5"}, {"smiles": "NCc1cccc(NC(=O)CN2CCN(C(=O)OCc3ccccc3)CC2)c1", "IC50": "> 99.5"}, {"smiles": "CCn1cc(-c2ccc3nn(C)cc3c2)nc(N2CC[C@@H](CO)C2)c1=O", "IC50": "> 99.5"}, {"smiles": "CCn1cc(-c2cc(F)ccc2C)nc(N2CC[C@@H](CO)C2)c1=O", "IC50": "> 99.5"}, {"smiles": "CCn1c(=O)c(N2CC3(CCCCC3)C[C@H]2CO)nc2ccccc21", "IC50": "> 99.5"}, {"smiles": "NCc1cccc(NC(=O)[C@@H](NC(=O)OCc2ccccc2)c2ccc(-c3ccc(N)nc3)cc2)c1", "IC50": 73.2}, {"smiles": "O=C(NCc1cc(Cl)ccc1NS(=O)(=O)c1ccc(Oc2ccccc2Cl)cc1)C1CC1", "IC50": "> 99.5"}, {"smiles": "Cn1cc(-c2ccc([C@@H](NC(=O)OCc3ccccc3)C(=O)Nc3cccc(CN)c3)cc2)cn1", "IC50": "> 99.5"}, {"smiles": "CN(c1ncnc(-c2ccsc2C=O)n1)C1CCNCC1", "IC50": 98.4}, {"smiles": "CCn1cc(-c2c[nH]c3ncccc23)nc(N2CC[C@@H](CO)C2)c1=O", "IC50": "> 99.5"}, {"smiles": "CCn1cc(-c2ccc(C(F)F)nc2)nc(N2CC[C@@H](CO)C2)c1=O", "IC50": "> 99.5"}, {"smiles": "C[C@@H](NC(=O)c1ccc2[nH]cc(C=O)c2c1)C1=CCN(C)CC1", "IC50": "> 99.5"}, {"smiles": "COc1ccc(COc2ccc(S(=O)(=O)Nc3ccc(Cl)cc3C(=O)O)cc2)nc1", "IC50": "> 99.5"}, {"smiles": "CCc1ccc(-c2cn(CC)c(=O)c(N3CC[C@@H](CO)C3)n2)s1", "IC50": "> 99.5"}, {"smiles": "NCc1cccc(NC(=O)[C@@H](NC(=O)OCc2ccccc2)c2ccc(-c3cncnc3)cc2)c1", "IC50": "> 99.5"}, {"smiles": "C[C@H]1CN(C(=O)Cc2ccc(C=O)[nH]2)CCN1C1CCCC1", "IC50": "> 99.5"}, {"smiles": "NCc1cccc(NC(=O)[C@@H](NC(=O)OCc2ccccc2)c2cccc(OCc3cncnc3)c2)c1", "IC50": "> 99.5"}, {"smiles": "CCn1cc(-c2cnc3ccnn3c2)nc(N2CC[C@@H](CO)C2)c1=O", "IC50": "> 99.5"}, {"smiles": "O=C(O)c1cscc1NS(=O)(=O)c1ccc(Oc2ccccc2Cl)cc1", "IC50": "> 99.5"}, {"smiles": "CCn1cc(-c2ccc(S(C)(=O)=O)cc2)nc(N2CC[C@@H](CO)C2)c1=O", "IC50": "> 99.5"}, {"smiles": "CNc1nc2cc(-c3ccc4c(c3)C[C@H](N)C4)ccc2o1", "IC50": "> 99.5"}, {"smiles": "CC1(C)CCC([C@@H](NC(=O)OCc2ccccc2)C(=O)Nc2cccc(CN)c2)CC1", "IC50": 94.3}, {"smiles": "Cc1ccc(F)c(-c2ccc([C@@H](NC(=O)OCc3ccccc3)C(=O)Nc3cccc(CN)c3)cc2)c1", "IC50": 6.81}, {"smiles": "NCc1cccc(NC(=O)[C@@H](NC(=O)OCc2ccccc2)c2ccc(-c3ccncc3F)cc2)c1", "IC50": 38.9}, {"smiles": "NCc1cccc(NC(=O)[C@@H](NC(=O)OCc2ccccc2)c2ccc(-c3cccnc3F)cc2)c1", "IC50": 45.1}, {"smiles": "NCc1cccc(NC(=O)[C@@H](NC(=O)OCc2ccccc2)c2ccc(-c3cc4cccnc4s3)cc2)c1", "IC50": 3.56}, {"smiles": "O=C(O)CN(c1ccc(Cl)cc1)S(=O)(=O)c1ccc(Oc2ccccc2Cl)cc1", "IC50": "> 99.5"}, {"smiles": "COc1ccccc1-c1ccc([C@@H](NC(=O)OCc2ccccc2)C(=O)Nc2cccc(CN)c2)cc1", "IC50": 27.2}, {"smiles": "CCn1cc(-c2ccc(CN(C)C)cc2)nc(N2CC[C@@H](CO)C2)c1=O", "IC50": "> 99.5"}, {"smiles": "CCn1nccc1-c1cn(CC)c(=O)c(N2CC[C@@H](CO)C2)n1", "IC50": "> 99.5"}, {"smiles": "CCn1cc(-c2ccc([C@@H](NC(=O)OCc3ccccc3)C(=O)Nc3cccc(CN)c3)cc2)cn1", "IC50": 97.2}, {"smiles": "O=Cc1ccc(CC(=O)N2C[C@@H](O)[C@H](N3CCOCC3)C2)cc1", "IC50": "> 99.5"}, {"smiles": "Cc1nccnc1Oc1ccc(S(=O)(=O)Nc2ccc(Cl)cc2C(=O)O)cc1", "IC50": "> 99.5"}, {"smiles": "Cc1n[nH]cc1-c1ccc([C@@H](NC(=O)OCc2ccccc2)C(=O)Nc2cccc(CN)c2)cc1", "IC50": "> 99.5"}, {"smiles": "Cn1cc(-c2ccc([C@@H](NC(=O)OCc3ccccc3)C(=O)Nc3cccc(CN)c3)cc2)ccc1=O", "IC50": "> 99.5"}, {"smiles": "CCn1c(=O)c(N2CCC[C@H]2CN2CCCC2)nc2ccccc21", "IC50": "> 99.5"}, {"smiles": "NCc1cccc(NC(=O)C2(CNC(=O)OCc3ccccc3)CCCC2)c1", "IC50": "> 99.5"}, {"smiles": "CCn1cc(-c2cccc(-c3ccccc3)c2)nc(N2CC[C@@H](CO)C2)c1=O", "IC50": "> 99.5"}, {"smiles": "O=C(N[C@@H](C(=O)NCc1ccccn1)c1ccc(OCc2ccccc2)cc1)OCc1ccccc1", "IC50": "> 99.5"}, {"smiles": "O=C(O)c1cc(Cl)ccc1NS(=O)(=O)c1ccc(OCc2ncccn2)cc1", "IC50": "> 99.5"}, {"smiles": "CCn1cc(-c2cn(C)nc2C(F)(F)F)nc(N2CC[C@@H](CO)C2)c1=O", "IC50": "> 99.5"}, {"smiles": "NC(=O)c1ccc(N2CC[C@@H](CO)C2)cc1", "IC50": "> 99.5"}, {"smiles": "O=C(NCC1CC1)[C@H]1CCCC[C@H]1NS(=O)(=O)c1ccc(Oc2ccccc2Cl)cc1", "IC50": "> 99.5"}, {"smiles": "CCn1cc(-c2ccncc2F)nc(N2CC[C@@H](CO)C2)c1=O", "IC50": "> 99.5"}, {"smiles": "CCn1cc(-c2ccccc2C(=O)OC)nc(N2CC[C@@H](CO)C2)c1=O", "IC50": "> 99.5"}]}]}
